Molecules are shown by their SMILES.

One may read the IC50 as the concentration that inhibits the measured activity by half.

T1 sequence (Q8IYL9 whole entry): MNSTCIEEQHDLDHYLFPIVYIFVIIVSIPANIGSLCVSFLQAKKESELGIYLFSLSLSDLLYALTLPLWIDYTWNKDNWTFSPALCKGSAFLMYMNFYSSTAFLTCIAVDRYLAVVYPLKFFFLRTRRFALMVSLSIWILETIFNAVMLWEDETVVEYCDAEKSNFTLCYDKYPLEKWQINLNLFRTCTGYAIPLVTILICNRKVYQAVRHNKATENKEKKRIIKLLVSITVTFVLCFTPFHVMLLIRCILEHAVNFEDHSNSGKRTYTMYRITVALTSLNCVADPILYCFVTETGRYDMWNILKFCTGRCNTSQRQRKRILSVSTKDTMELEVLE

The first experiment concerns the target T1, human recombinant GPR65 (Homo sapiens, UniProt Q8IYL9).
T1 construct: host or cells: 1321N1 human astrocytoma cells (1321N1-hrGPR65)
Put plainly: Human GPR65 cAMP HTRF antagonist assay. The experiment is classed as cell-based.
Conditions: not given
The source says: In one preferred embodiment, the compound prevents the increase in cytoplasmic cAMP levels expected following GPR65 activation at acidic pH. This prevention of cAMP accumulation in turn prevents downstream signalling through ICER, as described above. The “Human GPR65 cyclic adenosine monophosphate (cAMP) Homogeneous Time Resolved Fluorescence (HTRF) antagonist assay”, or simply “cAMP assay”, as described in the accompanying examples, can be used to measure the potency of GPR65 modulators, which is expressed as the concentration of compound required to reduce the increase in cAMP concentration upon GPR65 activation by 50% (i.e. an IC50).
Human GPR65 Cyclic Adenosine Monophosphate (cAMP) Homogeneous Time Resolved Fluorescence (HTRF) Antagonist Assay Procedure
IC50 data was obtained by the following procedure:
1321N1 human astrocytoma cells stably expressing human recombinant GPR65 (1321N1-hrGPR65 cells, EuroscreenFast) were cultured according to the vendor's instructions.
Compounds were tested for their ability to antagonise GPR65, through measuring the concentration of cytoplasmic cAMP following treatment of the cells at a pH of 7.2 to activate GPR65 signalling and addition of the compound to be tested. The extent to which the expected rise in cAMP concentration upon GPR65 activation was suppressed by the added compound is indicative of its potency. The assay was carried out according to EuroscreenFast assay methodology as follows.
On the day of the assay, test compounds were added to 384-well, low volume, white microtiter plates by acoustic dispensing. KRH buffer (5 mM KCl, 1.25 mM MgSO4, 124 mM NaCl, 25 mM HEPES, 13.3 mM Glucose, 1.25 mM KH2PO4 and 1.45 mM CaCl2) was adjusted to pH 6.5, pH 7.6 and pH 8.4 by adding NaOH. 1321N1-hGPR65 cells were rapidly thawed and diluted in KRH, pH 7.6 prior to centrifugation at 300×g for 5 min and resuspension in assay buffer (KRH, pH 7.6, supplemented with 1 mM 3-isobutyl-1-methylxanthine (IBMX) and 200 μM ethylenediaminetetraacetic acid (EDTA)). Cells were added to assay plates at a density of 2,000 cells per well in a volume of 5 μl. Assay plates were briefly centrifuged at 100×g and then incubated at room temperature for 30 min. Cells were stimulated by the addition of 5 μL KRH, pH 6.5, to achieve an assay pH of 7.2, while control wells received 5 μl KRH, pH 8.4 to achieve an assay pH of 7.9. Assay plates were briefly centrifuged at 100×g and then incubated at room temperature for 30 min.
Accumulation of cAMP was detected by cAMP HTRF kit (Cisbio). d2-labeled cAMP and cryptate-labeled anti-cAMP antibody in Lysis and Detection Buffer (Cisbio) were added to assay plates, and the plates were incubated at room temperature for 1 h. HTRF measurements were performed using a Pherastar FSX instrument. Acceptor and donor emission signals were measured at 665 nm and 620 nm, respectively, and HTRF ratios were calculated as signal665 nm/signal620 nm×104. Data were normalised to high and low control values and fitted with 4-parameter logistic regression to determine hGPR65 IC50 values for the test compounds, which are shown in Table 1.
(In general: In TR-FRET formats the signal depends on donor and acceptor labels being close together.)
In the case of `O=C(Nc1ccc(C(F)(F)F)c(Cl)c1)N1C2CCC1c1cncnc1C2` (racemic) [Compound 2, (±)-N-(3-Chloro-4-(trifluoromethyl)phenyl)-6,7,8,9-tetrahydro-5H-5,8-epiminocyclohepta[d]pyrimidine-10-carboxamide], the IC50 was less than 500 nM.
Consider `O=C(Nc1ccc(Br)c(Cl)c1)N1C2CCC1c1cncnc1C2` (racemic) [Compound 7, (±)-N-(4-Bromo-3-chlorophenyl)-6,7,8,9-tetrahydro-5H-5,8-epiminocyclohepta[d]pyrimidine-10-carboxamide], for which the IC50 was less than 500 nM.
With `O=C(Nc1ccc(C(F)(F)F)c(Br)c1)N1C2CCC1c1cncnc1C2` (racemic) [Compound 15, (±)-N-(3-Bromo-4-(trifluoromethyl)phenyl)-6,7,8,9-tetrahydro-5H-5,8-epiminocyclohepta[d]pyrimidine-10-carboxamide], the half-maximal inhibitory concentration (IC50) was less than 500 nM.
On the same count and under the same terms, with `O=C(Nc1ccc(Br)c(Br)c1)N1C2CCC1c1cncnc1C2` (racemic) [Compound 16, (±)-N-(3,4-Dibromophenyl)-6.7,8,9-tetrahydro-5H-5,8-epiminocyclohepta[d]pyrimidine-10-carboxamide] the figure was less than 500 nM.
On to `O=C(Nc1ccc(Cl)c(Cl)c1)N1C2CCC1c1ncncc1C2` (racemic) [Compound 17, (±)-N-(3,4-Dichlorophenyl)-6,7,8,9-tetrahydro-5H-6,9-epiminocyclohepta[d]pyrimidine-10-carboxamide], for which the 50% inhibitory concentration (IC50) was less than 500 nM.
Still for that read-out and setting: with `O=C(Nc1ccc(C(F)(F)F)c(Cl)c1)N1C2CCC1c1ncncc1C2` (racemic) [Compound 18, (±)-N-(3-Chloro-4-(trifluoromethyl)phenyl)-6,7,8,9-tetrahydro-5H-6,9-epiminocyclohepta[d]pyrimidine-10-carboxamide] the figure was less than 500 nM; with `O=C(Nc1ccc(Cl)c(Cl)c1)N1C2CCC1c1cnc(=O)[nH]c1C2` (racemic) [Compound 31, (±)-N-(3,4-Dichlorophenyl)-2-oxo-2,5,6,7,8,9-hexahydro-1H-5,8-epiminocyclohepta[d]pyrimidine-10-carboxamide], less than 500 nM; with `O=C(Nc1ccc(C(F)(F)F)c(Cl)c1)N1C2CCC1c1cnc(=O)[nH]c1C2` (racemic) [Compound 32, (±)-N-(3-Chloro-4-(trifluoromethyl)phenyl)-2-oxo-2,5,6,7,8,9-hexahydro-1H-5,8-epiminocyclohepta[d]pyrimidine-10-carboxamide], less than 500 nM.
Same read-out and setting: as for `O=C(Nc1ccc(C(F)(F)F)c(Cl)c1)N1C2CCC1c1ccncc1C2` (racemic) [Compound 35, (±)-N-(3-Chloro-4-(trifluoromethyl)phenyl)-6,7,8,9-tetrahydro-5H-5,8-epiminocyclohepta[c]pyridine-10-carboxamide], the figure is less than 500 nM; as for `O=C(Nc1ccc(Cl)c(Cl)c1)N1C2CCC1c1ccncc1C2` (racemic) [Compound 36, (±)-N-(3,4-Dichlorophenyl)-6,7,8,9-tetrahydro-5H-5,8-epiminocyclohepta[c]pyridine-10-carboxamide], less than 500 nM.

The same experiment, now with this note: 1321N1-hrGPR65 cells, assay pH 7.2, cAMP HTRF; read-out: hGPR65 IC50 (activity class).
For `O=C(Nc1ccc(C(F)(F)F)cc1)N1C2CCC1c1cncnc1C2` (racemic) [Compound 1, (±)-N-(4-(Trifluoromethyl)phenyl)-6,7,8,9-tetrahydro-5H-5,8-epiminocyclohepta[d]pyrimidine-10-carboxamide], the IC50 lay within 500 to 5000 nM.
On the same count and under the same terms, with `O=C(Nc1ccc(Cl)c(C(F)(F)F)c1)N1C2CCC1c1cncnc1C2` (racemic) [Compound 3, (±)-N-(4-Chloro-3-(trifluoromethyl)phenyl)-6,7,8,9-tetrahydro-5H-5,8-epiminocyclohepta[d]pyrimidine-10-carboxamide] the figure was 500 to 5000 nM; with `O=C(Nc1cc(Cl)cc(Cl)c1)N1C2CCC1c1cncnc1C2` (racemic) [Compound 4, (±)-N-(3,5-Dichlorophenyl)-6,7,8,9-tetrahydro-5H-5,8-epiminocyclohepta[d]pyrimidine-10-carboxamide], 500 to 5000 nM; with `O=C(Nc1ccc(F)c(C(F)(F)F)c1)N1C2CCC1c1cncnc1C2` (racemic) [Compound 5, (±)-N-(4-Fluoro-3-(trifluoromethyl)phenyl)-6,7,8,9-tetrahydro-5H-5,8-epiminocyclohepta[d]pyrimidine-10-carboxamide], more than 5000 nM.
Still for that read-out and setting: with `O=C(Nc1ccc(F)c(F)c1)N1C2CCC1c1cncnc1C2` (racemic) [Compound 6, (±)-N-(3,4-Difluorophenyl)-6,7,8,9-tetrahydro-5H-5,8-epiminocyclohepta[d]pyrimidine-10-carboxamide] the figure was more than 5000 nM.
Still for that read-out and setting: as for `COc1ccc(NC(=O)N2C3CCC2c2cncnc2C3)cc1Cl` (racemic) [Compound 8, (±)-N-(3-Chloro-4-methoxyphenyl)-6,7,8,9-tetrahydro-5H-5,8-epiminocyclohepta[d]pyrimidine-10-carboxamide], the figure is more than 5000 nM; as for `N#Cc1ccc(NC(=O)N2C3CCC2c2cncnc2C3)cc1Cl` (racemic) [Compound 11, (±)-N-(3-chloro-4-cyanophenyl)-6,7,8,9-tetrahydro-5H-5,8-epiminocyclohepta[d]pyrimidine-10-carboxamide], 500 to 5000 nM.
`O=C(Nc1ccc(Cl)c(Br)c1)N1C2CCC1c1cncnc1C2` (racemic) [Compound 12, (±)-N-(3-Bromo-4-chlorophenyl)-6,7,8,9-tetrahydro-5H-5,8-epiminocyclohepta[d]pyrimidine-10-carboxamide]: the concentration for half-maximal inhibition (IC50) was 500 to 5000 nM.
As for `N#Cc1ccc(NC(=O)N2C3CCC2c2cncnc2C3)cc1Br` (racemic) [Compound 13, (±)-N-(3-Bromo-4-cyanophenyl)-6,7,8,9-tetrahydro-5H-5,8-epiminocyclohepta[d]pyrimidine-10-carboxamide], the IC50 is more than 5000 nM.
Same read-out and setting: as for `O=C(Nc1ccc(Cl)c(Cl)c1)N1C2CCC1c1cnc(C(F)(F)F)nc1C2` (racemic) [Compound 24, (±)-N-(3,4-Dichlorophenyl)-2-(trifluoromethyl)-6,7,8,9-tetrahydro-5H-5,8-epiminocyclohepta[d]pyrimidine-10-carboxamide], the figure is more than 5000 nM; as for `Cc1ncc2c(n1)CC1CCC2N1C(=O)Nc1ccc(Cl)c(Cl)c1` (racemic) [Compound 25, (±)-N-(3,4-Dichlorophenyl)-2-methyl-6,7,8,9-tetrahydro-5H-5,8-epiminocyclohepta[d]pyrimidine-10-carboxamide], more than 5000 nM; as for `O=C(Nc1ccc(Cl)c(Cl)c1)N1C2CCC1c1cnc(-c3ccccc3)nc1C2` (racemic) [Compound 26, (±)-N-(3,4-Dichlorophenyl)-2-phenyl-6,7,8,9-tetrahydro-5H-5,8-epiminocyclohepta[d]pyrimidine-10-carboxamide], 500 to 5000 nM.
Same read-out and setting: with `O=C(Nc1ccc(C(F)(F)F)c(Cl)c1)N1C2CCC1c1cnc(C(F)(F)F)nc1C2` (racemic) [Compound 27, (±)-N-(3-Chloro-4-(trifluoromethyl)phenyl)-2-(trifluoromethyl)-6,7,8,9-tetrahydro-5H-5,8-epiminocyclohepta[d]pyrimidine-10-carboxamide] the figure was more than 5000 nM; with `O=C(Nc1ccc(Cl)c(C(F)(F)F)c1)N1C2CCC1c1cnc(-c3ccccc3)nc1C2` (racemic) [Compound 28, (±)-N-(4-Chloro-3-(trifluoromethyl)phenyl)-2-phenyl-6,7,8,9-tetrahydro-5H-5,8-epiminocyclohepta[d]pyrimidine-10-carboxamide], more than 5000 nM; with `O=C(Nc1ccc(C(F)(F)F)c(Cl)c1)N1C2CCC1c1cnc(-c3ccccc3)nc1C2` (racemic) [Compound 29, (±)-N-(3-Chloro-4-(trifluoromethyl)phenyl)-2-phenyl-6,7,8,9-tetrahydro-5H-5,8-epiminocyclohepta[d]pyrimidine-10-carboxamide], 500 to 5000 nM.
Same read-out and setting: as for `O=C(Nc1ccc(Cl)c(Cl)c1)N1C2CCC1c1ccccc1C2` (racemic) [Compound 34, (±)-N-(3,4-Dichlorophenyl)-6,7,8,9-tetrahydro-5H-5,8-epiminobenzo[7]annulene-10-carboxamide], the figure is 500 to 5000 nM.

The values above are taken from patent publication US20230373989A1, “N-PHENYLAMINOCARBONYL PYRIDINO-, PYRIMIDINO AND BENZO-TROPANES AS MODULATORS OF GPR65” (PATHIOS THERAPEUTICS LIMITED, priority 2020, published 2023).
